Laboratory results reported in patent publication US20110275559A1, “Long-Acting Y2 and/or Y4 Receptor Agonists” (Novo Nordisk A/S, priority 2008, published 2011).
Where two headings read alike, the source gives them in different places. *1 amine or outer side, *2 acyl side, *3 side chain or, on linkers, in order; H or OH if unused. Where a SMILES comes first, the peptide text is derived from it. Side-chain parts run from the residue outwards. The star is where a group is joined. C20 diacid = O=C(O)CCCCCCCCCCCCCCCCCCC(=O)*; C18 diacid = O=C(O)CCCCCCCCCCCCCCCCC(=O)*; γGlu = O=C(O)[C@H](CCC(=O)[*:2])N[*:1]; Trx = NC[C@H]1CC[C@H](C(=O)O)CC1; AEEA = NCCOCCOCC(=O)O

Columns and labels:
Y4 receptor = target: T1, Y4 receptor (Homo sapiens, UniProt P50391); assay: Y4 receptor ACTOne based FLIPR assay (cAMP biosensor); type: cell-based
T1 construct: host or cells: ACTOne HEK-293 cells
T1 sequence (P50391 whole entry): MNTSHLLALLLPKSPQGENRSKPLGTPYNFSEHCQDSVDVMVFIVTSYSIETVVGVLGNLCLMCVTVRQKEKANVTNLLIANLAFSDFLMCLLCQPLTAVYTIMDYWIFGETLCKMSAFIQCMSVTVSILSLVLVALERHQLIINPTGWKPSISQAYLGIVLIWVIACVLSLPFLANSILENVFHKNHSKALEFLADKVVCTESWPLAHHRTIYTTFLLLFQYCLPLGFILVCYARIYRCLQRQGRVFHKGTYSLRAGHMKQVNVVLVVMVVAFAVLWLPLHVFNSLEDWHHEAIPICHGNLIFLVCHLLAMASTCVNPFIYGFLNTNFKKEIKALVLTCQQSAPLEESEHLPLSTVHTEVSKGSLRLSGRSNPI
Excerpt: ACTOne™ is an easily scaleable cAMP biosensor HTS platform for measurement of Gs and Gi coupled 7™ receptor signalling from BD Biosciences (San Jose, Calif.). The cells express a biosensor developed around a modified rat olfactory cyclic nucleotide gated (CNG) calcium channel—a fairly non-discriminatory ion channel that responds to cAMP and cGMP. The CNG has been engineered to be cAMP selective and thus function as a cAMP responsive biosensor that signals through calcium or membrane potential responsive dyes. Y2 or Y4 receptor expressing ACTOne HEK-293 cells are obtained from BD Biosciences. The cells are loaded with a calcium responsive dye that only distributes in the cytoplasm. Probenecid, an inhibitor of the organic anion transporter is added to prevent the dye from leaving the cell. A phosphodiesterase inhibitor is added to prevent formatted cAMP from being degraded. Isoproterenol (an β1/β2 agonist) is added to activate the adenylate cyclase. When an Y2 or Y4 receptor agonist is added, the adenylate cyclase is inactivated. The decreased calcium concentration in the cytoplasm is then detected as an increase in fluorescence. Together with the test substance, Isoproterenol at a concentration matching EC80, is added to all wells. • The cells are plated out in Greiner 384-well plates. […] The plates are covered with tinfoil to avoid light (the dye can be excited by the daylight, which results in higher baseline and variation). • The FLIPR (FLIPRtetra from Molecular Devices, CA, USA) adds 1 μl sample and 1 μl isoproterenol (0.05 μM final concentration) at the same time. • The fluorescence signal from the wells is measured 330 seconds after sample addition on the FLIPR.

[1] = Mini-pig PK assay (plasma half-life); settings: Göttingen, minipig
Outline: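 Catheterised mini-pigs received compound i.v. at 10 nmol/kg in pH 4.0 phosphate/NaCl/tween vehicle, or alternatively i.v. or s.c. at 1–30 nmol/kg in pH 8.0 K2HPO4/tween. Stabilised plasma was sampled up to 13 days and assayed by LC-MS (LLOQ 2 nM). Half-life came from non-compartmental analysis of individual animal profiles.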

Y2 receptor = target: T2, Y2 receptor (Homo sapiens, UniProt P49146); assay: Y2 receptor ACTOne based FLIPR assay (cAMP biosensor); type: cell-based
T2 construct: host or cells: ACTOne HEK-293 cells
T2 sequence (P49146 1-381): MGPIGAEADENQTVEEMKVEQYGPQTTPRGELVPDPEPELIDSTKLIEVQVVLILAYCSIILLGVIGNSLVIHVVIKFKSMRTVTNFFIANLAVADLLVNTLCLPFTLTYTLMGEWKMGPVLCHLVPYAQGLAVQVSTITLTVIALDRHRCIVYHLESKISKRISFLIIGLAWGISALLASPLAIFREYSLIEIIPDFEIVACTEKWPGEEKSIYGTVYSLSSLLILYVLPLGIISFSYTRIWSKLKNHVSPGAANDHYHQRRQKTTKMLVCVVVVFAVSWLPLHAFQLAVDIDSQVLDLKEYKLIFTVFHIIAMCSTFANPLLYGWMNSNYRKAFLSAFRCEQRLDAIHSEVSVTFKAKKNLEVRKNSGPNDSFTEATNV

[2] = Table 2, PP analogues, ACTOne HEK-293 cells, read-out: Y2 cAMP EC50
[3] = Table 2, PP analogues, ACTOne HEK-293 cells, read-out: Y4 cAMP EC50

Compound `CC[C@H](C)[C@H](NC(=O)[C@H](Cc1ccc(O)cc1)NC(=O)[C@H](CCCNC(=N)N)NC(=O)[C@H](CCCNC(=N)N)NC(=O)[C@H](CC(C)C)NC(=O)[C@H](CC(=O)O)NC(=O)[C@H](C)NC(=O)[C@H](C)NC(=O)[C@H](Cc1ccc(O)cc1)NC(=O)[C@H](CCC(N)=O)NC(=O)[C@H](C)NC(=O)[C@H](CC(C)C)NC(=O)[C@H](CCC(N)=O)NC(=O)[C@H](CCC(=O)O)NC(=O)[C@@H]1CCCN1C(=O)[C@H](CCCCNC(=O)COCCOCCNC(=O)COCCOCCNC(=O)CC[C@H](NC(=O)[C@H]1CC[C@H](CNC(=O)CCCCCCCCCCCCCCCCCCC(=O)O)CC1)C(=O)O)NC(=O)[C@H](C)NC(=O)[C@H](CC(N)=O)NC(=O)[C@H](CC(=O)O)NC(=O)CNC(=O)[C@@H]1CCCN1C(=O)[C@H](Cc1ccc(O)cc1)NC(=O)[C@@H](NC(=O)[C@@H]1CCCN1C(=O)[C@H](CCC(=O)O)NC(=O)[C@H](CC(C)C)NC(=O)[C@@H]1CCCN1C(=O)[C@H](C)N)C(C)C)C(=O)N[C@@H](CC(N)=O)C(=O)N[C@H](C(=O)N[C@@H](CC(C)C)C(=O)N[C@H](C(=O)N[C@@H](CCCNC(=N)N)C(=O)N[C@@H](CCC(N)=O)C(=O)N[C@@H](CCCNC(=N)N)C(=O)N[C@@H](Cc1ccc(O)cc1)C(N)=O)[C@@H](C)O)C(C)C` [SEQ ID NO: 17, N-epsilon13-[2-(2-{2-[2-(2-{2-[(S)-4-Carboxy-4-({trans-4-[(19-carboxynonadecanoylamino)methyl]cyclohexanecarbonyl}amino)butyrylamino]-ethoxy}ethoxy)acetylamino]ethoxy}ethoxy)acetyl][Lys13,Leu17,Val30,Gln34]hPP(1-36)] (H-APLEPVYPGDNAK([AEEA-AEEA-γGlu-Trx-C20 diacid])PEQLAQYAADLRRYINVLTRQRY-NH2; N-terminus and C-terminus assumed) has an EC50 (Y4 receptor) of 7 nM.
In the case of `CC[C@H](C)[C@H](NC(=O)[C@H](Cc1ccc(O)cc1)NC(=O)[C@H](CCCNC(=N)N)NC(=O)[C@H](CCCNC(=N)N)NC(=O)[C@H](CC(C)C)NC(=O)[C@H](CC(=O)O)NC(=O)[C@H](C)NC(=O)[C@H](C)NC(=O)[C@H](Cc1ccc(O)cc1)NC(=O)[C@H](CCC(N)=O)NC(=O)[C@H](C)NC(=O)[C@H](CC(C)C)NC(=O)[C@H](CCC(N)=O)NC(=O)[C@H](CCC(=O)O)NC(=O)[C@@H]1CCCN1C(=O)[C@@H](NC(=O)[C@H](C)NC(=O)[C@H](CCCCNC(=O)COCCOCCNC(=O)COCCOCCNC(=O)CC[C@H](NC(=O)[C@H]1CC[C@H](CNC(=O)CCCCCCCCCCCCCCCCCCC(=O)O)CC1)C(=O)O)NC(=O)[C@H](CC(=O)O)NC(=O)CNC(=O)[C@@H]1CCCN1C(=O)[C@H](Cc1ccc(O)cc1)NC(=O)[C@@H](NC(=O)[C@@H]1CCCN1C(=O)[C@H](CCC(=O)O)NC(=O)[C@H](CC(C)C)NC(=O)[C@@H]1CCCN1)C(C)C)[C@@H](C)O)C(=O)N[C@@H](CC(N)=O)C(=O)N[C@@H](CC(C)C)C(=O)N[C@@H](CC(C)C)C(=O)N[C@H](C(=O)N[C@@H](CCCNC(=N)N)C(=O)N1CCC[C@H]1C(=O)N[C@@H](CCCNC(=N)N)C(=O)N[C@@H](Cc1ccc(O)cc1)C(N)=O)[C@@H](C)O` [SEQ ID NO: 29, N-epsilon11-[2-(2-{2-[2-(2-{2-[(S)-4-Carboxy-4-({trans-4-[(19-carboxynonadecanoylamino)methyl]cyclohexanecarbonyl}amino)butyrylamino]-ethoxy}ethoxy)acetylamino]ethoxy}ethoxy)acetyl][Lys11,Leu17,Leu30]hPP2-36] (H-PLEPVYPGDK([AEEA-AEEA-γGlu-Trx-C20 diacid])ATPEQLAQYAADLRRYINLLTRPRY-NH2; N-terminus and C-terminus assumed), the half-life ([1]; in vivo, iv, 1 nmol/kg) is reported as 23 h, the half-life ([1]; in vivo, iv, 30 nmol/kg) is reported as 27 h and the EC50 (Y2 receptor) is reported as > 1000 nM. It also gave an EC50 (Y4 receptor) of 2 nM.
For `CC[C@H](C)[C@H](NC(=O)[C@H](Cc1ccc(O)cc1)NC(=O)[C@H](CCCNC(=N)N)NC(=O)[C@H](CCCNC(=N)N)NC(=O)[C@H](CC(C)C)NC(=O)[C@H](CC(=O)O)NC(=O)[C@H](C)NC(=O)[C@H](C)NC(=O)[C@H](Cc1ccc(O)cc1)NC(=O)[C@H](CCC(N)=O)NC(=O)[C@H](C)NC(=O)[C@H](CC(C)C)NC(=O)[C@H](CCC(N)=O)NC(=O)[C@H](CCC(=O)O)NC(=O)[C@@H]1CCCN1C(=O)[C@@H](NC(=O)[C@H](C)NC(=O)[C@H](CCCCNC(=O)COCCOCCNC(=O)COCCOCCNC(=O)CC[C@H](NC(=O)CCCCCCCCCCCCCCCCC(=O)O)C(=O)O)NC(=O)[C@H](CC(=O)O)NC(=O)CNC(=O)[C@@H]1CCCN1C(=O)[C@H](Cc1ccc(O)cc1)NC(=O)[C@@H](NC(=O)[C@@H]1CCCN1C(=O)[C@H](CCC(=O)O)NC(=O)[C@H](CC(C)C)NC(=O)[C@@H]1CCCN1)C(C)C)[C@@H](C)O)C(=O)N[C@@H](CC(N)=O)C(=O)N[C@@H](CC(C)C)C(=O)N[C@@H](CC(C)C)C(=O)N[C@H](C(=O)N[C@@H](CCCNC(=N)N)C(=O)N1CCC[C@H]1C(=O)N[C@@H](CCCNC(=N)N)C(=O)N[C@@H](Cc1ccc(O)cc1)C(N)=O)[C@@H](C)O` [SEQ ID NO: 30, N-epsilon11-[2-(2-{2-[2-(2-{2-[(S)-4-Carboxy-4-(17-carboxyheptadecanoylamino)butyrylamino]ethoxy}ethoxy)acetylamino]-ethoxy}ethoxy)acetyl][Lys11,Leu17,Leu30]hPP2-36] (H-PLEPVYPGDK([AEEA-AEEA-γGlu-C18 diacid])ATPEQLAQYAADLRRYINLLTRPRY-NH2; N-terminus and C-terminus assumed), the half-life ([1]; iv, […]) was 22 h, the EC50 (Y2 receptor; [2]) was > 1000 nM and the EC50 (Y4 receptor; [3]) was 1 nM.
For `CC[C@H](C)[C@H](NC(=O)[C@H](Cc1ccc(O)cc1)NC(=O)[C@H](CCCNC(=N)N)NC(=O)[C@H](CCCNC(=N)N)NC(=O)[C@H](CC(C)C)NC(=O)[C@H](CC(=O)O)NC(=O)[C@H](C)NC(=O)[C@H](C)NC(=O)[C@H](Cc1ccc(O)cc1)NC(=O)[C@H](CCC(N)=O)NC(=O)[C@H](C)NC(=O)[C@H](CC(C)C)NC(=O)[C@H](CCC(N)=O)NC(=O)[C@H](CCC(=O)O)NC(=O)[C@@H]1CCCN1C(=O)[C@@H](NC(=O)[C@H](C)NC(=O)[C@H](CC(N)=O)NC(=O)[C@H](CC(=O)O)NC(=O)CNC(=O)[C@@H]1CCCN1C(=O)[C@H](Cc1ccc(O)cc1)NC(=O)[C@@H](NC(=O)[C@@H]1CCCN1C(=O)[C@H](CCC(=O)O)NC(=O)[C@H](CC(C)C)NC(=O)[C@@H]1CCCN1)C(C)C)[C@@H](C)O)C(=O)N[C@@H](CC(N)=O)C(=O)N[C@@H](CC(C)C)C(=O)N[C@@H](CC(C)C)C(=O)N[C@H](C(=O)N[C@@H](CCCCNC(=O)COCCOCCNC(=O)COCCOCCNC(=O)CC[C@H](NC(=O)CCCCCCCCCCCCCCCCC(=O)O)C(=O)O)C(=O)N1CCC[C@H]1C(=O)N[C@@H](CCCNC(=N)N)C(=O)N[C@@H](Cc1ccc(O)cc1)C(N)=O)[C@@H](C)O` [SEQ ID NO: 41, N-epsilon33-[2-(2-{2-[2-(2-{2-[(S)-4-Carboxy-4-(17-carboxyheptadecanoylamino)butyrylamino]ethoxy}ethoxy)acetylamino]-ethoxy}ethoxy)acetyl][Leu17,Leu30,Lys33]hPP2-36] (H-PLEPVYPGDNATPEQLAQYAADLRRYINLLTK([AEEA-AEEA-γGlu-C18 diacid])PRY-NH2), the half-life ([1]; iv, […]) was 105 h, the half-life ([1]; male, sc, […]) was 93 h and the EC50 (Y2 receptor; [2]) was > 1000 nM. The EC50 (Y4 receptor; [3]) was > 1000 nM.
